Where “and” joins values, the source holds several entries; their conditions need not be identical. Equal entries are not always repeated.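 Values below derive from 48-hour exposures of cells grown in 96-well plates, with endpoints linearly interpolated between the two concentrations bracketing the appropriate inhibition level. Abbreviation: GI50, concentration required for 50% inhibition of growth. TGI is the concentration that stops growth completely.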
What was measured:
Experiment in all cases: inhibition of tumour cell growth, NCI panel, 48 h
[1] = test system: NCI/ADR-RES ovarian
[2] = test system: PC-3 prostate
[3] = test system: DU-145 prostate
[4] = test system: OVCAR-4 ovarian
[5] = test system: CAKI-1 renal
[6] = test system: SNB-75 CNS
[7] = test system: HOP-92 NSCLC
[8] = test system: NCI-H522 lung
[9] = test system: UACC-257 melanoma
[10] = test system: IGROV1 ovarian

Compound	GI50 [1]	TGI [1]	GI50 [2]	TGI [2]	GI50 [3]	TGI [3]	GI50 [4] [nM]	TGI [4] [µM]	GI50 [5]	TGI [5]	GI50 [6] [nM]	TGI [6]	GI50 [7]	TGI [7]	GI50 [8]	TGI [8]	GI50 [9]	TGI [9]	GI50 [10] [nM]	TGI [10] [µM]
O=C(CCc1nnc2sc(-c3ccc(Cl)cc3Cl)nn12)c1nc2ncccc2[nH]1	2.71 µM	9.12 µM	1.63 µM	3.63 µM	1.92 µM	3.63 µM	1920	4.26	1.42 µM	3.15 µM	459	3.79 µM	1.19 µM	2.6 µM	1.9 µM	4.49 µM	3 µM	9.01 µM	1820	3.8
Cc1cc2c(cc1Cl)SC(N(N(C)C)S(=O)(=O)c1ccc(Cl)cc1)=NS2(=O)=O	28 µM	> 100 µM	22.4 µM	> 100 µM	27.8 µM	99.4 µM	23400	96.4	30.5 µM	66.6 µM	36000	97.5 µM	14.8 µM	35.3 µM	11.1 µM	43.9 µM	23.8 µM	88.5 µM	31800	> 100
O=C1OC(O)[C@@H]2[C@H]1[C@H]1CC[C@@H]2O1 (some centres not stated)	> 100 µM	> 100 µM	> 100 µM	> 100 µM	> 87.3 µM	> 100 µM	> 100000	> 100	71.9 µM	> 100 µM	45300	> 100 µM	20.3 µM	> 69.9 µM	26.3 µM	74.9 µM	> 87 µM	> 100 µM	> 100000	> 100
CN(C)CCSC1=Nc2ccc(Cl)cc2C(c2ccccc2Cl)=NC1	15 µM and 42.4 µM	37.1 µM and > 100 µM	15.4 µM and 57.7 µM	33.4 µM and > 100 µM	14.4 µM and 60.2 µM	30.5 µM and > 100 µM		> 100	15.1 µM and 79.5 µM	31.5 µM and > 100 µM		33.1 µM and > 100 µM	12.3 µM and 72.3 µM	31.7 µM and > 100 µM	6.68 µM and 52.2 µM	21.6 µM and > 100 µM	13.4 µM and > 100 µM	26.3 µM and > 100 µM		> 100
CC[C@H](Nc1ncnc2nc[nH]c12)c1oc2ccccc2c(=O)c1-c1cccc(F)c1	21.3 µM	> 100 µM	12.4 µM	> 100 µM	26.9 µM	> 100 µM	23100	> 100	14.7 µM	> 100 µM	4150	56.1 µM	4.99 µM	63.7 µM	19.7 µM	> 100 µM	25.7 µM	> 100 µM	15200	53.8
COC1=CC(=O)C(C2CC(=O)c3c(O)cc(O)cc3O2)=CC1=O (configuration not stated)		46.5 µM		31.1 µM		35.3 µM		36.5		33.1 µM		39.7 µM		17.6 µM		30.8 µM		34.9 µM		33.6
Cn1cnc([N+](=O)[O-])c1S(=O)(=O)Oc1cccc2ccccc12	7.59 µM	33 µM	8.43 µM	44.4 µM	3.14 µM	8.03 µM	2030	5.96	1.76 µM	4.07 µM	9550	32.3 µM	2.6 µM	11.5 µM	0.271 µM	1.18 µM	2.36 µM	6.29 µM	2140	5.09
Cc1cc(/C=C/c2ccc3cc(N(C)C)ccc3[n+]2C)c(C)n1-c1ccccc1	1.67 µM	13.4 µM	0.13 µM	0.765 µM	0.175 µM	0.846 µM	72.3	5.23	0.722 µM	2.24 µM	211	1.9 µM	0.193 µM	1.33 µM	0.103 µM	0.989 µM	0.184 µM	0.951 µM	300	3.92
CC(C)[C@H]1COC(=O)N1[C@@H]1C(=O)N([C@@H](CCC(=O)N2CCN(C3CCCC3)CC2)C(=O)N[C@@H]2CCCc3ccccc32)[C@@H]1/C=C/c1cccc(Br)c1	2.98 µM	11.8 µM	1.8 µM	4.28 µM	1.52 µM	7.57 µM	2790	15	1.88 µM	4.01 µM	1360	3.91 µM	1.5 µM	4.21 µM	1.75 µM	3.51 µM	1.63 µM	3.44 µM	1830	5.9
NC1(C(=O)OCc2ccccc2)CCCC1		> 100 µM		> 100 µM		37.5 µM		37.3		47.5 µM		35.1 µM		38.4 µM		42.6 µM		41.9 µM		38.8
COc1cc(/C=C/c2cc(O)c(C(C)=O)c(O)c2)cc2c1O[C@]1(C)CC[C@@H](O)C(C)(C)[C@H]1C2	14.3 µM	65.8 µM	3.75 µM	> 100 µM	16.6 µM	> 100 µM	13500	74.5	4.12 µM	> 100 µM	1770	27 µM	3.2 µM	61.6 µM	17.3 µM	54 µM	11 µM	72.7 µM	6440	69
CCOC(=O)c1cc2nc3ccccc3c(=O)n2c2ccccc12		> 10 µM		> 10 µM		> 10 µM		> 10		> 10 µM		> 10 µM		> 10 µM		> 10 µM		> 10 µM		> 10
Cc1cc(O)c(/C=N/C(=S)NCc2ccccc2)c(=O)o1		> 100 µM		> 100 µM		> 100 µM		> 100		> 100 µM		> 100 µM		> 100 µM		> 100 µM		> 100 µM		> 100
COc1cc(NCc2ccc3oc(=O)c(-c4ccccc4)nc3c2)cc(OC)c1OC		> 10 µM		> 10 µM		> 10 µM		> 10		> 10 µM		> 10 µM		> 10 µM		> 10 µM		> 10 µM		> 10

Reference: PubChem BioAssay (NCI)
